Laboratory results from US12059422B2 (MEI Pharma, Inc., priority 2011, dated 2024).
pIC50: −log10 of the molar value.

Tests used:
PI3Kβ = molecular target: T1, PI3Kβ (Homo sapiens, UniProt P42338); assay: ELISA assay for PI3Kβ: in-cell ELISA, phosphorylation of AKT (Ser473) in PC-3 cells; type: cell-based; conditions: for pIC50: cellular, pAKT (Ser473), PC-3 cells, LPA stimulation, read-out: IC50 p110β; for α/β ratio: ratio of cellular IC50 values, Table 2
T1 construct: endogenous in cells; host or cells: PC-3 (ATCC #CRL-1435)
Description: Cellular PI3Kβ activity was determined by measuring the phosphorylation of AKT (Ser473) using an in-cell ELISA assay. PC-3 (prostate carcinoma) cells were obtained from ATCC (ATCC #CRL-1435). Growth medium was DMEM (CellGro #CV-10-013-CV) supplemented with 10% fetal bovine serum, 100 IU/mL penicillin, 100 μg/mL streptomycin, and 1×MEM non-essential amino acids. Phosphate buffered saline (PBS) contained 2.7 M NaCl, 54 mM KCl, 86 mM […] (dibasic, anhydrous), 28 mM […] (monobasic, anhydrous), pH 7.2, 10× stimulation mixture contained 50 μM LPA (Cayman #62215) diluted in serum-free DMEM medium (CellGro #CV-10-013-CV). Compounds for testing were dissolved and serially diluted in 100% DMSO (total of 10 concentrations), then diluted in serum-free DMEM to 2× final assay concentration. 2× fixative solution contained 8% formaldehyde (Amresco #M134) diluted in PBS. Permeabilization solution contained PBS supplemented with 0.1% Triton X-100. Blocking buffer was obtained from LiCor (LiCor #927-40000). Wash buffer contained PBS supplemented with 0.1% Tween-20. Primary antibody solution was rabbit anti-pAKT^S473 monoclonal antibody (Cell Signaling #4060) and mouse anti-total S6 (Santa Cruz #74459) diluted 1:500 and 1:2000, respectively, in blocking buffer. Secondary antibody solution was IRDye 800CW-conjugated goat anti-rabbit IgG (LiCor #926-32211) and IRDye 680LT-conjugated goat anti-mouse IgG (LiCor #926-68020) diluted 1:2000 and 1:1000, respectively, in blocking buffer.
PC-3 cells were subcultured in growth medium and seeded into flat, clear bottom, 96-well plates (Corning #3904) at 16000 cells/well, then incubated overnight in a 37° C., 5% CO2 incubator. Growth medium in plates was replaced with 100 μL/well serum-free DMEM and incubated overnight in a 37° C., 5% CO2 incubator. 50 μL/well of fresh serum-free DMEM was added to plates. Compound treatment was performed by adding 50 μL/well of 2× compound mixture to plates and incubating for 2 hrs at 37° C., 5% CO2, after which 11 μL/well of 10× stimulation mixture was added and plates were incubated for 10 min at 37° C., 5% CO2. Fixation was performed by adding 110 μL/well of 2× fixative solution to plates and incubating for 20 min at room temperature. Permeabilization was performed by replacing fixation solution with 150 μL/well permeabilization solution and incubating for 10 min at room temperature. Permeabilization was repeated (for a total of 2 times). Permeabilization solution was replaced with 100 μL/well blocking buffer and plates were incubated for 1 hr at room temperature, after which 100 μL/well of primary antibody solution was added and plates were incubated overnight at 4° C. Plates were washed with wash buffer, after which 100 μL/well of secondary antibody solution was added to the plates and incubated in the dark for 1 hr at room temperature. Plates were washed with wash buffer, followed by awash with PBS. After completely removing PBS, plates were scanned on the Licor Odyssey Imager. Images quantified using Licor Odyssey application software. IC50 values were determined by curve fitting using a Collaborative Drug Discovery database (www.collaborativedrug.com).

PI3K alpha = molecular target: T2, PI3K alpha (Homo sapiens, UniProt P42336); assay: Luciferase-based luminescence assay (KinaseGlo), PI3K alpha enzymatic activity; type: biochemical; conditions: inhibition of enzymatic activity, 25 μM ATP, read-out: IC50 p110α
T2 construct: purchased Invitrogen Corp., Carlsbad, CA, USA
Outline: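 KinaseGlo luminescence measured ATP remaining after PIP2 (50 μM) phosphorylation with 25 μM ATP in HEPES pH 7.5 buffer with CHAPS and DTT. Final enzyme was 1.65 nM alpha (1 h reaction) or 6.86 nM delta (2 h reaction). IC50 was curve-fitted from 10 concentrations.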

T1 sequence (P42338 whole entry): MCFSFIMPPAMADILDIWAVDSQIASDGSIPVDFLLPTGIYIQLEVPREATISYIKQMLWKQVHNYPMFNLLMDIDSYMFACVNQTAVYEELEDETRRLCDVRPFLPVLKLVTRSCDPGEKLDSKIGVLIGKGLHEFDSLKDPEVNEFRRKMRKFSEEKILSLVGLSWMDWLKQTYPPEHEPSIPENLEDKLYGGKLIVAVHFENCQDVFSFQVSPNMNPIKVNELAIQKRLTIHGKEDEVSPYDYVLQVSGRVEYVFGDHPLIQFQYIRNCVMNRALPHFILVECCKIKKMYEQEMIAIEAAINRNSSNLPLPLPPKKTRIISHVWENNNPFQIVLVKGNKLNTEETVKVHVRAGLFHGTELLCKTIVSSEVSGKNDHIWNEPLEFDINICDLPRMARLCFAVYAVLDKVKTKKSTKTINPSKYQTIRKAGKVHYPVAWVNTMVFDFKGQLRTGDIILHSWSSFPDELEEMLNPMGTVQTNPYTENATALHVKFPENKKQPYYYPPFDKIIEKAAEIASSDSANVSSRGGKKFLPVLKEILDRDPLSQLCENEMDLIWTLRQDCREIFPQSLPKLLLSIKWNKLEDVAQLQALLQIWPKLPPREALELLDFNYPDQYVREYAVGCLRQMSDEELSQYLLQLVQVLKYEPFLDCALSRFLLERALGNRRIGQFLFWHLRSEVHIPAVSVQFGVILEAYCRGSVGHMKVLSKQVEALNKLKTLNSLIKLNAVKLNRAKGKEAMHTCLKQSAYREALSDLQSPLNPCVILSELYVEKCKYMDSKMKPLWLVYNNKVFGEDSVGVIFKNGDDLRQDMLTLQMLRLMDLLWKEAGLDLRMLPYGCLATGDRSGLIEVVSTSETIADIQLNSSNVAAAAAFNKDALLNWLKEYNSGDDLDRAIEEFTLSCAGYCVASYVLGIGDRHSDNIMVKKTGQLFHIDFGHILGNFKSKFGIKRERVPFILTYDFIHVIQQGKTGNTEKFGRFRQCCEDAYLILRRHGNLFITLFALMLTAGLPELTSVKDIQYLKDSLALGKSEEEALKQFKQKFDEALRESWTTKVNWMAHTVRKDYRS
T1 sequence (P27986 whole entry partner): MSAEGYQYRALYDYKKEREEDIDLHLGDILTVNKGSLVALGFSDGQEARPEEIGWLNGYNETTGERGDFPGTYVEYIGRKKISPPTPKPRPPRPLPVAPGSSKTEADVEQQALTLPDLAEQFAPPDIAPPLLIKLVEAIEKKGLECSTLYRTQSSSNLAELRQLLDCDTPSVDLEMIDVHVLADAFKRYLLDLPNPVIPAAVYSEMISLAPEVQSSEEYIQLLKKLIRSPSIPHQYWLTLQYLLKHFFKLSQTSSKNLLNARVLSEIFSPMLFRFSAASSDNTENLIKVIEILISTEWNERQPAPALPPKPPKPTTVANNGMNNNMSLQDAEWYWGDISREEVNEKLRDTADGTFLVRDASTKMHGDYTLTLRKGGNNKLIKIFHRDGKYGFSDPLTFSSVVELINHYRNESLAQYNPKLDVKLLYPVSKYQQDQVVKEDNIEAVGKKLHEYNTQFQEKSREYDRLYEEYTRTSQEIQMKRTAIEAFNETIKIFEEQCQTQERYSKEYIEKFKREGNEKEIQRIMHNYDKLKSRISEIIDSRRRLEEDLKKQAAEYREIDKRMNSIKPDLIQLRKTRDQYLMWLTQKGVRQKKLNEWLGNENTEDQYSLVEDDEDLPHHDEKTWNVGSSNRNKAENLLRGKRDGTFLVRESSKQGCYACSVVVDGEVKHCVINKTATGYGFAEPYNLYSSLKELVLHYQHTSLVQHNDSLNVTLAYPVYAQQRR
T2 sequence (P42336 whole entry, species assumed): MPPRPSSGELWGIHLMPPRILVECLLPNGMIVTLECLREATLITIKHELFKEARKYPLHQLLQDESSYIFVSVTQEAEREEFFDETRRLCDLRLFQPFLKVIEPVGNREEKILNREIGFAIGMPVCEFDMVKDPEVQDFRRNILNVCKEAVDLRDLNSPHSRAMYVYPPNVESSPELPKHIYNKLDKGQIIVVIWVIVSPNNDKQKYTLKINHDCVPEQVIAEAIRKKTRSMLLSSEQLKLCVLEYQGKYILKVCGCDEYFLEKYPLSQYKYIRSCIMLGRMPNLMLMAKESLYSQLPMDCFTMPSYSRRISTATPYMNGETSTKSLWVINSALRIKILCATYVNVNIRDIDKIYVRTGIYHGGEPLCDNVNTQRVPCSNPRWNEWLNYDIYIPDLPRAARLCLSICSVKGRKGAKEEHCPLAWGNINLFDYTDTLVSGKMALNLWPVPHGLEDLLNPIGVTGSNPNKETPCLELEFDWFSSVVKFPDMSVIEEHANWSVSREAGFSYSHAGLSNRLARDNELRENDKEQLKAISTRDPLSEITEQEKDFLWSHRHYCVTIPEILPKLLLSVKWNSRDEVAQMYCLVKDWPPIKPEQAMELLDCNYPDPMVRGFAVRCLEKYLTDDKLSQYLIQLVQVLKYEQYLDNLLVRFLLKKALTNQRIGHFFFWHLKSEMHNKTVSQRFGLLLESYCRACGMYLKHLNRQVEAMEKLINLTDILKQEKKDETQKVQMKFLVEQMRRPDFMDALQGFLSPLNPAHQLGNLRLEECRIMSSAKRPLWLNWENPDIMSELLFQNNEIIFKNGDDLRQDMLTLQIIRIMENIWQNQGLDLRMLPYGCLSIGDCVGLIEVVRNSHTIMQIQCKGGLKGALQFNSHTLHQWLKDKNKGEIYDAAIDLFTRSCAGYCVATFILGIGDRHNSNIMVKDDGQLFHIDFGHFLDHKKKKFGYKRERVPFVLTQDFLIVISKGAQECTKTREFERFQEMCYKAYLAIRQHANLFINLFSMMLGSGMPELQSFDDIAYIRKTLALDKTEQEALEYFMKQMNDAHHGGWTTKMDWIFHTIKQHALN
T2 sequence (P27986 whole entry partner, species assumed): as the sequence (P27986 whole entry partner) above

| pIC50 (PI3Kβ) | α/β ratio (PI3Kβ) | pIC50 (PI3K alpha) | SMILES |
| --- | --- | --- | --- |
| ≥ 7.00 | B’ | < 6.30 | CC(C)(Cc1ccccc1)Nc1nc(N2CCOCC2)nc(-n2c(C(F)F)nc3ccccc32)n1 [Compound A14, 4-(2-(difluoromethyl)-1H-benzo[d]imidazol-1-yl)-N-(2-methyl-1-phenylpropan-2-yl)-6-morpholino-1,3,5-triazin-2-amine] |
| ≥ 7.00 | – | < 6.30 | COc1ccccc1CC(C)(C)Nc1nc(N2CCOCC2)nc(-n2c(C(F)F)nc3ccccc32)n1 [Compound A19, 4-(2-(difluoromethyl)-1H-benzo[d]imidazol-1-yl)-N-(1-(2-methoxyphenyl)-2-methylpropan-2-yl)-6-morpholino-1,3,5-triazin-2-amine] |
| ≥ 7.00 | A’ | < 6.30 | CC(C)N1CCC(c2ccccc2CC(C)(C)Nc2nc(N3CCOCC3)nc(-n3c(C(F)F)nc4ccccc43)n2)CC1 [Compound A71, 4-(2-(difluoromethyl)-1H-benzo[d]imidazol-1-yl)-N-(1-(2-(1-isopropylpiperidin-4-yl)phenyl)-2-methylpropan-2-yl)-6-morpholino-1,3,5-triazin-2-amine] |
